Experimental data taken from patent publication US20060089390A1, “3-benzoyl-2,4,5-substituted pyridine derivatives or salts thereof and bactericides containing the same” (Ishihara Sangyo Kaisha, Ltd., priority 2002, published 2006).
Where two headings read alike, the source gives them in different places.

Legend:
wheat powdery mildew = assay: Test on preventive effect against wheat powdery mildew; type: in vivo, Wheat (cultivar: Norin-61-go); details: Triticum aestivum, foliar spray before inoculation, examined 6 to 8 days after inoculation, read-out: controlling effects as compared with non-treated cases (area of sporogony)
Experimental: Tests on Preventive Effect Against Wheat Powdery Mildew Wheat (cultivar: […] After the drug solution dried, the wheat was inoculated by spreading with conidiospore of fungi of powdery mildew, and the wheat was kept in a thermostatic chamber at 20° C. From 6 to 8 days after the inoculation, the area of sporogony was examined.

cucumber powdery mildew [1] = assay: Test on preventive effect against cucumber powdery mildew; type: in vivo, Cucumber (cultivar: Suyo); details: Cucumis sativus, foliar spray before inoculation, examined 6 to 11 days after inoculation, read-out: controlling effects as compared with non-treated cases (area of sporogony)
Experimental: Test on Preventive Effect Against Cucumber Powdery Mildew Cucumber (cultivar: […] After the drug solution dried, the cucumber was sprayed and inoculated with a conidiospore suspension of fungi of powdery mildew, and the cucumber was kept in a thermostatic chamber at 20° C. From 6 to 11 days after the inoculation, the area of sporogony was examined.

cucumber powdery mildew [2] = assay: Test on rainfastness of effect against cucumber powdery mildew; type: in vivo, Cucumber (cultivar: Suyo); details: Cucumis sativus, topical, 500 gai/ha
Experimental: Cucumber (cultivar: […] A day after the treatment, 10 mm/hr of artificial rainfall was applied for 1 hour. Together with seedlings not subjected to rainfall treatment (preventive), the cucumber was sprayed and inoculated with a conidiospore suspension of fungi of powdery mildew, and the cucumber was kept in a thermostatic chamber at 20° C. From 6 to 11 days after the inoculation, the number of lesions was examined, and the controlling rate was calculated by comparison with the non-treated cases. The results are shown in Table 5.

[3] = 10 mm/hr artificial rainfall for 1 hour a day after treatment, read-out: Controlling rate of cucumber powdery mildew (%) Rainfall
[4] = no rainfall treatment (preventive), read-out: Controlling rate of cucumber powdery mildew (%) Preventive

SMILES | pest or weed control at 125 ppm (wheat powdery mildew) | pest or weed control at 125 ppm (cucumber powdery mildew [1]) | pest or weed control at 500 g/ha (cucumber powdery mildew [2]; [3]) | pest or weed control at 500 g/ha (cucumber powdery mildew [2]; [4])
CCOc1cc(C(=O)c2c(OC)ncc(Cl)c2Cl)c(C)cc1OC [1-4, 3-(5-ethoxy-4-methoxy-2-methylbenzoyl)-4,5-dichloro-2-methoxypyridine] | ≥ 90% | ≥ 90% | – | –
CCOc1ncc(Cl)c(C)c1C(=O)c1c(C)cc(OC)c(OC)c1OC [1-6, 3-(2,3,4-trimethoxy-6-methylbenzoyl)-5-chloro-2-ethoxy-4-methylpyridine] | ≥ 90% | – | – | –
CCOc1ncc(C)c(C)c1C(=O)c1c(C)cc(OC)c(OC)c1OCC [1-21, 3-(2-ethoxy-3,4-dimethoxy-6-methylbenzoyl)-2-ethoxy-4,5-dimethylpyridine] | ≥ 90% | ≥ 90% | – | –
COc1cc(C)c(C(=O)c2c(OC)ncc(Br)c2C)c(OC)c1OC [1-36, 3-(2,3,4-trimethoxy-6-methylbenzoyl)-5-bromo-2-methoxy-4-methylpyridine] | ≥ 90% | ≥ 90% | – | –
COc1cc(C)c(C(=O)c2c(OC)cnc(C)c2Cl)c(OC)c1OC [2-4, 4-(2,3,4-trimethoxy-6-methylbenzoyl)-3-chloro-5-methoxy-2-methylpyridine, reference compound] | ≥ 90% | – | 35% | 92.5%
COc1cc(C)c(C(=O)c2c(OC)ccnc2OC)c(OC)c1OC [2-5, 3-(2,3,4-trimethoxy-6-methylbenzoyl)-2,4-dimethoxypyridine, reference compound] | ≥ 90% | – | 0% | 95%
COc1cc(C)c(C(=O)c2c(OC)ncc(Br)c2Br)c(OC)c1OC [1-12, 3-(2,3,4-trimethoxy-6-methylbenzoyl)-4,5-dibromo-2-methoxypyridine] | ≥ 90% | ≥ 90% | 68% | 100%
COc1cc(C)c(C(=O)c2c(OC)cnc(Cl)c2C)c(OC)c1OC [2-1, 4-(2,3,4-trimethoxy-6-methylbenzoyl)-2-chloro-5-methoxy-3-methylpyridine, reference compound] | ≥ 90% | ≥ 90% | 0% | 100%
CCOc1ncc(Br)c(Cl)c1C(=O)c1c(C)cc(OC)c(OC)c1OC [1-7, 3-(2,3,4-trimethoxy-6-methylbenzoyl)-5-bromo-4-chloro-2-ethoxypyridine] | ≥ 90% | ≥ 90% | – | –
COc1cc(C)c(C(=O)c2c(OC)cnc(C)c2C(F)(F)F)c(OC)c1OC [2-2, 4-(2,3,4-trimethoxy-6-methylbenzoyl)-3-trifluoromethyl-5-methoxy-2-methylpyridine, reference compound] | ≥ 90% | ≥ 90% | 35% | 100%
COc1cc(C)c(C(=O)c2c(OC)ncc(C)c2Br)c(OC)c1OC [1-13, 3-(2,3,4-trimethoxy-6-methylbenzoyl)-4-bromo-2-methoxy-5-methylpyridine] | ≥ 90% | ≥ 90% | – | –
COc1cc(C)c(C(=O)c2c(OC)ncc(Cl)c2SC)c(OC)c1OC [1-10, 3-(2,3,4-trimethoxy-6-methylbenzoyl)-5-chloro-2-methoxy-4-methylthiopyridine] | ≥ 90% | ≥ 90% | – | –
COc1cc(C)c(C(=O)c2c(OC)ncc(C)c2C(F)(F)F)c(OC)c1OC [Compound No. 1-37, 3-(2,3,4-trimethoxy-6-methylbenzoyl)-4-trifluoromethyl-2-methoxy-5-methylpyridine] | ≥ 90% | ≥ 90% | 100% | 100%
CCOc1ncc(Cl)c(Br)c1C(=O)c1c(C)cc(OC)c(OC)c1OC [1-5, 3-(2,3,4-trimethoxy-6-methylbenzoyl)-4-bromo-5-chloro-2-ethoxypyridine] | ≥ 90% | ≥ 90% | – | –
